According to patent US10485236B2, “Triazole derivatives, intermediates thereof and their use as fungicides” (Bayer CropScience Aktiengesellschaft, priority 2015, dated 2019):
Marks after values point to notes of the source that are not given here.

Experiment: Measurement of LogP values by HPLC on reversed phase columns (EEC directive 79/831 Annex V.A8)
Assay type: physicochemical
Settings: not given
Description: [table] If more than one Log P value is available within the same method, all the values are given and separated by “+”. Calibration was done with straight-chain alkan2-ones (with 3 to 16 carbon atoms) with known Log P values (measurement of Log P values using retention times with linear interpolation between successive alkanones). Lambda-max-values were determined using UV-spectra from 200 nm to 400 nm and the peak values of the chromatographic signals.

LogP	Structure (SMILES)
2.68^[a]	CC(O)(Cn1cncn1)c1ccc(Oc2ccc(Cl)cc2)nc1C(F)(F)F (stereo not shown) [I.96]
3.87^[a]	CCCCC(O)(Cn1cncn1)c1ccc(Oc2ccc(Cl)cc2)nc1C(F)(F)F (stereo not shown) [I.98]
3.55^[a]	CCCC(O)(Cn1cncn1)c1ccc(Oc2ccc(Cl)cc2)nc1C(F)(F)F (stereo not shown) [I.100]
3.19^[a]	CCC(O)(Cn1cncn1)c1ccc(Oc2ccc(Cl)cc2)nc1C(F)(F)F (stereo not shown) [I.103]
4.44^[a]	CC1(c2ccc(Oc3ccc(Cl)cc3)nc2C(F)(F)F)CO1 (stereo not shown) [IX.06]
3.35^[a]	CC(=O)c1ccc(Oc2ccc(Cl)cc2)nc1C(F)F [V.05]
4.37^[a]	CC(=O)c1ccc(Oc2ccc(Cl)cc2)nc1OC(F)(F)F [V.06]
4.09^[a]	CC(=O)c1ccc(Oc2ccc(S(F)(F)(F)(F)F)cc2)nc1C(F)(F)F [V.16]
3.96^[a]	CC(=O)c1ccc(Oc2ccc(C(F)(F)F)cc2)nc1C(F)(F)F [V.17]
3.85^[a]	CC(=O)c1ccc(Oc2ccc(Br)cc2)nc1C(F)(F)F [V.20]
3.51^[a]	CC(=O)c1ccc(Oc2ccc(Cl)cc2)nc1F [V.24]
3.45^[a]	CC(=O)c1ccc(Oc2ccc(Cl)cc2)nc1Cl [V.26]
3.89^[a]	CC(=O)c1ccc(Oc2ccc(OC(F)(F)F)cc2)nc1Cl [V.28]
3.26^[a]	CC(=O)c1ccc(Oc2ccc(C(F)F)cc2)nc1C(F)(F)F [V.32]
4.04^[a]	CC(=O)c1ccc(Oc2ccc(OC(F)(F)F)cc2)nc1C(F)(F)F [V.35]
3.87^[a]	CC(=O)c1ccc(Oc2ccc(Cl)cc2F)nc1C(F)(F)F [V.38]
4.37^[a]	O=C(c1ccc(Oc2ccc(C(F)(F)F)cc2)nc1C(F)(F)F)C1CC1 [V.39]
4.49^[a]	O=C(c1ccc(Oc2ccc(Br)cc2)nc1C(F)(F)F)C1CC1 [V.40]
3.21^[a]	O=Cc1ccc(Oc2ccc(C(=O)C3CC3)c(C(F)(F)F)n2)cc1 [V.42]
4.67^[a]	O=C(c1ccc(Oc2ccc(S(F)(F)(F)(F)F)cc2)nc1C(F)(F)F)C1CC1 [V.43]

LogP	Structure (SMILES)
3.80^[a]	O=C(c1ccc(Oc2ccc(C(F)F)cc2)nc1C(F)(F)F)C1CC1 [V.44]
4.20^[a]	CCC(=O)c1ccc(Oc2ccc(Cl)cc2)nc1C(F)(F)F [V.45]
4.59^[a]	CCCC(=O)c1ccc(Oc2ccc(Cl)cc2)nc1C(F)(F)F [V.46]
4.98^[a]	CC(C)CC(=O)c1ccc(Oc2ccc(Cl)cc2)nc1C(F)(F)F [V.47]
5.03^[a]	CCCCC(=O)c1ccc(Oc2ccc(Cl)cc2)nc1C(F)(F)F [V.48]
3.72^[a]	O=C(CCl)c1ccc(Oc2ccc(Cl)cc2)nc1Cl [VI.04]
4.09^[a]	O=C(CCl)c1ccc(Oc2ccc(OC(F)(F)F)cc2)nc1Cl [VI.08]
3.62^[a]	O=C(CCl)c1ccc(Oc2ccc(Cl)cc2)nc1C(F)F [VI.11]
4.51^[a]	O=C(CCl)c1ccc(Oc2ccc(Cl)cc2)nc1OC(F)(F)F [VI.12]
4.29^[a]	O=C(CBr)c1cnc(Oc2ccc(Cl)cc2)cc1C(F)(F)F [VI.14]
4.23^[a]	O=C(CBr)c1ccc(Oc2ccc(Br)cc2)nc1C(F)(F)F [VI.18]
4.11^[a]	O=C(CCl)c1ccc(Oc2ccc(Br)cc2)nc1C(F)(F)F [VI.19]
3.69^[a]	O=C(CCl)c1ccc(Oc2ccc(Cl)cc2)nc1F [VI.20]
4.19^[a]	O=C(CCl)c1ccc(Oc2ccc(C(F)(F)F)cc2)nc1C(F)(F)F [VI.28]
4.29^[a]	O=C(CCl)c1ccc(Oc2ccc(S(F)(F)(F)(F)F)cc2)nc1C(F)(F)F [VI.29]
4.18^[a]	O=C(CBr)c1ccc(Oc2c(F)cc(Cl)cc2F)nc1C(F)(F)F [VI.32]
4.07^[a]	O=C(CCl)c1ccc(Oc2ccc(OC(F)(F)F)cc2)nc1C(F)(F)F [VI.33]
4.19^[a]	O=C(CBr)c1ccc(Oc2ccc(Cl)cc2)nc1C(F)(F)F [VI.34]
4.11^[a]	O=C(CCl)c1ccc(Oc2ccc(Cl)cc2F)nc1C(F)(F)F [VI.35]
3.50^[a]	O=C(CCl)c1ccc(Oc2ccc(C(F)F)cc2)nc1C(F)(F)F [VI.36]

The remaining lines, values behind:

Structure (SMILES)	LogP
OC(Cn1cncn1)(c1ccc(Oc2ccc(S(F)(F)(F)(F)F)cc2)nc1C(F)(F)F)C1CC1 (stereo not shown) [I.97]	3.80^[a]
FC(F)c1ccc(Oc2ccc(C3(C4CC4)CO3)c(C(F)(F)F)n2)cc1 (stereo not shown) [IX.05]	4.49^[a]
FC(F)(F)c1nc(Oc2ccc(Br)cc2)ccc1C1(C2CC2)CO1 (stereo not shown) [IX.08]	5.11^[a]
FC(F)(F)c1nc(Oc2ccc(S(F)(F)(F)(F)F)cc2)ccc1C1(C2CC2)CO1 (stereo not shown) [IX.09]	5.22^[a]
FC(F)(F)c1ccc(Oc2ccc(C3(C4CC4)CO3)c(C(F)(F)F)n2)cc1 (stereo not shown) [IX.11]	5.00^[a]
CC(=O)c1cnc(Oc2ccc(S(F)(F)(F)(F)F)cc2)cc1C(F)(F)F [V.03]	4.32^[a]
CC(=O)c1cnc(Oc2ccc(C(F)F)cc2)cc1C(F)(F)F [V.04]	3.62^[a]
CC(=O)c1cnc(Oc2ccc(Cl)cc2F)cc1C(F)(F)F [V.07]	4.09^[a]
CC(=O)c1ccc(Oc2ccc(Cl)c(Cl)c2)nc1Cl [V.11]	4.10^[a]
CC(=O)c1ccc(Oc2ccc(F)cc2)nc1Cl [V.12]	3.11^[a]
CC(=O)c1ccc(Oc2ccc(Cl)cc2)nn1 [V.13]	2.73^[a]
CC(=O)c1ccc(Oc2ccc(C(F)F)cc2)nc1Cl [V.14]	3.15^[a]
CC(=O)c1cnc(Oc2ccc(OC(F)(F)F)cc2)cc1C(F)(F)F [V.15]	4.20^[a]
CC(=O)c1cnc(Oc2ccc(C(F)(F)F)cc2)cc1Cl [V.18]	3.87^[a]
CC(=O)c1cnc(Oc2ccc(Cl)cc2)cc1C(C)=O [V.19]	3.11^[a]
CC(=O)c1cnc(Oc2ccc(Cl)cc2)cc1Cl [V.22]	3.51^[a]
CC(=O)c1ncc(Oc2ccc(Cl)cc2)nc1Cl [V.23]	3.51^[a]
CC(=O)c1cnc(Oc2ccc(C(F)(F)F)cc2)cc1C(F)(F)F [V.25]	4.04^[a]
CC(=O)c1cnc(Oc2ccc(Br)cc2)cc1C(F)(F)F [V.27]	3.99^[a]
COc1ccc(Oc2ccc(C(C)=O)c(Cl)n2)c(Cl)c1 [V.29]	3.44^[a]
CC(=O)c1ccc(Oc2ccc(S(F)(F)(F)(F)F)cc2)nc1Cl [V.30]	3.99^[a]
CC(=O)c1ccc(Oc2c(F)cc(Cl)cc2F)nc1C(F)(F)F [V.31]	4.06^[a]
CC(=O)c1ncc(Oc2ccc(Cl)cc2)nc1Oc1ccc(Cl)cc1 [V.33]	4.36^[a]

Structure (SMILES)	LogP
CC(=O)c1ccc(Oc2ccc(Br)cc2)nc1C(F)F [V.34]	3.46^[a]
CC(=O)c1cnc(Oc2ccc(Br)cc2)cc1C(F)F [V.36]	3.74^[a]
CC(=O)c1cnc(Oc2ccc(Cl)cc2)cc1C(F)F [V.37]	3.57^[a]
O=C(CCl)c1ccc(Oc2ccccc2)nc1Cl [VI.03]	3.23^[a]
O=C(CCl)c1cnc(Oc2ccccc2)cc1Cl [VI.05]	3.28^[a]
O=C(CCl)c1cnc(Oc2ccc(Cl)cc2)cc1Cl [VI.06]	3.77^[a]
O=C(CBr)c1ccc(Oc2ccc(Cl)c(Cl)c2)nc1Cl [VI.07]	4.58^[a]
O=C(CCl)c1ccc(Oc2ccc(F)cc2)nc1Cl [VI.09]	3.39^[a]
O=C(CCl)c1ncc(Oc2ccc(Cl)cc2)nc1Cl [VI.10]	3.78^[a]
COc1ccc(Oc2ccc(C(=O)CCl)c(Cl)n2)c(Cl)c1 [VI.13]	3.71^[a]
O=C(CBr)c1cnc(Oc2ccc(Br)cc2)cc1C(F)(F)F [VI.15]	4.34^[a]
O=C(CCl)c1ccc(Oc2ccc(C(F)F)cc2)nc1Cl [VI.16]	3.42^[a]
O=C(CBr)c1ccc(Oc2ccc(C(F)F)cc2)nc1Cl [VI.17]	3.57^[a]
O=C(CCl)c1cnc(Oc2ccc(OC(F)(F)F)cc2)cc1C(F)(F)F [VI.21]	4.37^[a]
O=C(CCl)c1cnc(Oc2ccc(C(F)(F)F)cc2)cc1C(F)(F)F [VI.22]	4.21^[a]
O=C(CCl)c1cnc(Oc2ccc(Br)cc2)cc1C(F)(F)F [VI.23]	4.16^[a]
O=C(CBr)c1cnc(Oc2ccc(Cl)cc2F)cc1C(F)(F)F [VI.24]	4.34^[a]
O=C(CCl)c1cnc(Oc2ccc(Cl)cc2F)cc1C(F)(F)F [VI.25]	4.15^[a]
O=C(CCl)c1cnc(Oc2ccc(C(F)F)cc2)cc1C(F)(F)F [VI.26]	3.76^[a]
O=C(CBr)c1cnc(Oc2ccc(C(F)F)cc2)cc1C(F)(F)F [VI.27]	3.99^[a]
O=C(CCl)c1ccc(Oc2ccc(S(F)(F)(F)(F)F)cc2)nc1Cl [VI.30]	4.21^[a]
O=C(CCl)c1ccc(Oc2c(F)cc(Cl)cc2F)nc1C(F)(F)F [VI.31]	4.26^[a]
O=C(Cn1cncn1)c1ccc(Oc2ccc(Cl)c(Cl)c2)nc1Cl [VII.03]	3.06^[a]

Same assay, conditions: reversed phase HPLC column, method [a]: LC-UV, acidic range, 0.1% formic acid in water and acetonitrile as eluent

Structure (SMILES)	chromatographic logP
FC(F)(F)c1nc(Oc2ccc(Cl)cc2)ccc1C1(C2CC2)CO1 (stereo not shown) [IX.07, 6-(4-chlorophenoxy)-3-(2-cyclopropyloxiran-2-yl)-2-(trifluoromethyl)pyridine]	4.8
CC(=O)c1ccc(Oc2ccc(Cl)cc2)nc1C(F)(F)F [V.01, 1-[6-(4-chlorophenoxy)-2-(trifluoromethyl)-3-pyridyl]ethanone]	3.8
CC(=O)c1cnc(Oc2ccc(Cl)cc2)cc1C(F)(F)F [V.02, 1-[6-(4-chlorophenoxy)-4-(trifluoromethyl)-3-pyridyl]ethanone]	3.89
O=C(c1ccc(Oc2ccc(Cl)cc2)nc1C(F)(F)F)C1CC1 [V.41, [6-(4-chlorophenoxy)-2-(trifluoromethyl)-3-pyridyl]-cyclopropyl-methanone]	4.17

Same assay, conditions: reversed phase HPLC column, method [a]; compounds of formula (VI), Table 3

Structure (SMILES)	chromatographic logP
O=C(CCl)c1ccc(Oc2ccc(Cl)cc2)nc1C(F)(F)F [VI.01, 2-chloro-1-[6-(4-chlorophenoxy)-2-(trifluoromethyl)-3-pyridyl]ethanone]	4.01
